{"source": "patent US20220204531A1", "about": "“DIBORONIC ACID COMPOUNDS AND METHODS OF MAKING AND USING THEREOF” (The Regents of The University of California, priority 2020, published 2022)", "key": {"[1]": {"assay": "pKa measurement by absorbance at 280 nm as a function of pH", "format": "physicochemical", "settings": "for pKa: aqueous buffer solutions in 96-well microplate, 1 mM DBA2+Br, absorbance at 280 nm vs pH", "description": "100 mM buffer solutions for titration from pH 4 to pH 11.5 were prepared with different buffer systems to ensure the accuracy of pH for the following tests. NaAc/HAc was prepared for pH 4.05, 4.53, 5.03 and 5.53; Na2HPO4/NaH2PO4 was prepared for pH 6.00, 6.51, 6.99 and 7.51; NaB(OH)4/B(OH)3 was prepared for pH 8.05, 8.56 9.03 and 9.53; Na2CO3/NaHCO3 was prepared for pH 10.01, 10.54, 11.01 and 11.49.\n50 μL of buffer solutions at different pH was added into 96 microplate wells. Then 50 μL of 2 mM DBA2+Br or a mixture of 2 mM DBA2+Br and 400 mM glucose in water was added to each well.\nAfter shaking for 10 s and waiting for 10 min, the absorbance of each well at 280 nm was recorded on a microplate reader.\nDue to the interaction between borate and glucose, the pH of the borate buffer solution is changed and thus the data for DBA2+Br/Glucose from pH 8 to 9.5 were abandoned. The rest of the data was plotted in Origin. The equilibrium equation for DBA2+ is as follows: […]\nThen equation (4) is used for non-linear fitting in Origin, and pKa is defined as the pH at which half of the boronic acid is in the anionic state:\nThe same non-linear curve fitting also was used for the determination of pKa of DBAG2+G which has equilibrium equation as follow: […]\nThe pKa of DBA2+ before and after glucose binding was determined based on the differences in absorption spectra upon formation of tetrahedral borate anion in high pH media (Springsteen, et al., Tetrahedron, 58:5291-5300 (2002)).\npKa values were determined by curve fitting the changes in absorbance as a function of pH (FIG. 1)."}, "[2]": {"settings": "maximum physiological or therapeutic plasma concentration, cited from earlier work"}, "[3]": {"assay": "Effect of interference sugars on DBA2+ based conductimetric sensor (solution resistance)", "settings": "interference sugar 1 mM (maltose 10 mM), relative to resistance with glucose alone", "description": "To a reservoir in a device set up as depicted shown in FIG. 3, 1 mL of the initial testing solution (2 mM DBA2+P and 2.5 mM Na3PO4, pH=7.6) was added. Direct current voltage is 0 mV due to the same material for two electrodes. Alternating current voltage was set at 20 mV, and the impedance was scanned vs. frequency from 10 Hz to 10 MHz (FIGS. 4A-4C). At 0.1 MHz, the capacitive reactance is very small compared to the resistance (R) of the solution, and thus this frequency was used for the following tests.\nTo the testing solution, trace quantities (2-5 μL) of a concentrated (0.5 or 2 M) glucose aqueous solution were continuously added. Glucose solutions were added every 30 minutes with concentrations spanning the diabetes-relevant range, (i.e. [glucose]=0-30 mM). The resistance of solution vs. time was collected for 30 min after each addition. After adding glucose to 30 mM, the testing solution was diluted to 12 mM by adding 1.5 mL of fresh testing solution. 1.5 mL was then discharged after mixing and the resistance of the remaining 1 mL solution was monitored.\nInterference effects from other sugars, i.e. fructose, galactose, maltose, and lactose, were examined. Tests were performed at two different glucose concentrations typically experienced in diabetes, 5 mM (i.e. a physiological concentration of glucose) and 20 mM (i.e. a pathophysiological concentration of glucose) in 1 mL of testing solution. In these tests, interferent concentrations were higher or equal to 2.5 times the maximum plasma concentration (MPC). To the testing solution containing glucose, 2 μL or 5 μL of one of the interference solutions (containing fructose, galactose, maltose, or lactose) were added and the solution resistance (R) was monitored. The interference by 1 mM fructose or galactose was tested due to the considerable high affinity compared to the other […]."}, "[4]": {"assay": "Dissociation constant (Kd) by UV absorbance titration at 280 nm, glucose", "format": "binding", "settings": "1 mM DBA2+Br, 50 mM phosphate buffer pH 7.4", "description": "100 μL of glucose aqueous solutions with two-fold serial dilutions from 1024 mM to 0.5 mM were added into a 96 well microplate. Then 100 μL of 2 mM DBA2+Br in 100 mM phosphate buffer (pH=7.4) was added. After shaking for 10 s and waiting for 30 min, the absorbance of each well at 280 nm was recorded on a microplate reader.\n(§1) The affinity and selectivity of DBA+ to glucose were then tested by comparing affinity with other five mono- or di-saccharides, particularly fructose, galactose, maltose, sucrose, and lactose. The UV absorption changes at 280 nm of DBA+ with the increase of sugar concentration was used for the affinity calculation. The absorbance values of 1 mM DBA+Br at 280 nm as function of sugar concentrations from 0 to 512 mM were measured in 50 mM Phosphate PBS (pH=7.4).\nThe titration data was plotted. The disassociation equation for complex DBAG is as follows: […]\nwhere DBAG refers to all three possible complexes, DBA2+G, DBA1+G and DBA-G, and DBA2 refers to all the unbound molecules, DBA2+, DBA1+ and DBA0.\n(§2) where sqrt refers to the square root 11 Equation (11) is used for non-linear fitting in Origin to obtain the Kd values.\n(§3) The disassociation constant (Kd) of DBA2+ was calculated through non-linear curve fitting according to previous work (Stootman, et al., Analyst, 131:1145-1151 (2006))."}, "[5]": {"assay": "Dissociation constant (Kd) by UV absorbance titration at 280 nm, sucrose", "format": "binding", "settings": "1 mM DBA2+Br, 50 mM phosphate buffer pH 7.4", "description": "as §1, §2, §3"}, "[6]": {"assay": "Dissociation constant (Kd) by UV absorbance titration at 280 nm, fructose", "format": "binding", "settings": "1 mM DBA2+Br, 50 mM phosphate buffer pH 7.4", "description": "as §1, §2, §3"}, "[7]": {"assay": "Dissociation constant (Kd) by UV absorbance titration at 280 nm, maltose", "format": "binding", "settings": "1 mM DBA2+Br, 50 mM phosphate buffer pH 7.4", "description": "as §1, §2, §3"}, "[8]": {"assay": "Dissociation constant (Kd) by UV absorbance titration at 280 nm, lactose", "format": "binding", "settings": "1 mM DBA2+Br, 50 mM phosphate buffer pH 7.4", "description": "as §1, §2, §3"}, "[9]": {"assay": "Dissociation constant (Kd) by UV absorbance titration at 280 nm, galactose", "format": "binding", "settings": "1 mM DBA2+Br, 50 mM phosphate buffer pH 7.4", "description": "as §1, §2, §3"}, "[10]": {"settings": "presence of 200 mM glucose (DBA-G), read-out: pKa in the presence of glucose"}, "[11]": {"settings": "testing solution with 5 mM glucose"}, "[12]": {"settings": "testing solution with 20 mM glucose"}}, "note": "Several values for one entry are separate records, joined by “and”; a condition that tells them apart may be missing. Equal values may be shown once. Read-outs that look alike come from different tables or passages of the source.", "data": [{"smiles": "C[N+]1(C)Cc2ccc(cc2)C[N+](C)(C)Cc2ccccc2[B-]2(O)OC3OC4CO[B-](O)(OC4C(O)C3O2)c2ccccc2C1", "note": "(centres unmarked) [DBA-G]", "values": [{"measurement": "pKa", "setting": "[1]; [10]", "result": 6.3}]}, {"smiles": "O=C[C@H](O)[C@@H](O)[C@@H](O)[C@H](O)CO", "note": "[Galactose, galactose]", "values": [{"measurement": "Max plasma [sugar]", "setting": "[2]", "result": 0.28, "unit": "mM"}, {"measurement": "Resistance increase", "setting": "[3]; [11]", "result": 1.4, "unit": "%"}, {"measurement": "Resistance increase", "setting": "[3]; [12]", "result": 0.6, "unit": "%"}]}, {"smiles": "OC[C@H]1O[C@@H](O[C@H]2[C@H](O)[C@@H](O)C(O)O[C@@H]2CO)[C@H](O)[C@@H](O)[C@H]1O", "note": "(some centres unmarked) [Lactose, lactose]", "values": [{"measurement": "Max plasma [sugar]", "setting": "[2]", "result": 0.015, "unit": "mM"}, {"measurement": "Resistance increase", "setting": "[3]; [11]", "result": 0.2, "unit": "%"}, {"measurement": "Resistance increase", "setting": "[3]; [12]", "result": 1.6, "unit": "%"}]}, {"smiles": "C[N+](C)(Cc1ccc(C[N+](C)(C)Cc2ccccc2B(O)O)cc1)Cc1ccccc1B(O)O", "note": "[DBA2+]", "values": [{"measurement": "Kd", "setting": "[4]", "result": "900 ± 100", "unit": "µM"}, {"measurement": "Kd value for sucrose", "setting": "[5]", "result": "could not be determined due to their low affinity"}, {"measurement": "Kd", "setting": "[6]", "result": 1700, "unit": "µM"}, {"measurement": "Kd", "setting": "[6]; listed as Formula III", "result": "~1700", "unit": "µM"}, {"measurement": "Kd value for maltose", "setting": "[7]", "result": "could not be determined due to their low affinity"}, {"measurement": "Kd value for lactose", "setting": "[8]", "result": "could not be determined due to their low affinity"}, {"measurement": "pKa1", "setting": "[1]; absence of glucose", "result": 9.0}, {"measurement": "pKa2", "setting": "[1]; absence of glucose", "result": 9.7}, {"measurement": "pKa", "setting": "[1]; absence of glucose, read-out: pKa", "result": 9.4}, {"measurement": "pKa", "setting": "[1]; [10]", "result": 6.3}, {"measurement": "pKa1", "setting": "[1]; presence of 200 mM glucose", "result": 5.9}, {"measurement": "pKa2", "setting": "[1]; presence of 200 mM glucose", "result": 6.9}, {"measurement": "change in pKa for DBA2+ and DBA-G", "setting": "[1]; upon glucose binding, centers around pH 7.4", "result": "~3", "unit": "unit"}, {"measurement": "Kd", "setting": "[9]", "result": 16000, "unit": "µM"}, {"measurement": "Kd", "setting": "[9]; listed as Formula III", "result": "~16000", "unit": "µM"}]}, {"smiles": "OC[C@H]1O[C@H](O[C@H]2[C@H](O)[C@@H](O)[C@H](O)O[C@@H]2CO)[C@H](O)[C@@H](O)[C@@H]1O", "note": "[Maltose, maltose]", "values": [{"measurement": "Max plasma [sugar]", "setting": "[2]", "result": 3.5, "unit": "mM"}, {"measurement": "Resistance increase", "setting": "[3]; [11]", "result": 0.4, "unit": "%"}, {"measurement": "Resistance increase", "setting": "[3]; [12]", "result": 1.6, "unit": "%"}]}, {"smiles": "O=C(CO)[C@@H](O)[C@H](O)[C@H](O)CO", "note": "[Fructose, fructose]", "values": [{"measurement": "Max plasma [sugar]", "setting": "[2]", "result": 0.133, "unit": "mM"}, {"measurement": "Max plasma [sugar]", "setting": "[2]; listed as fructose", "result": 0.13, "unit": "mM"}, {"measurement": "Resistance increase", "setting": "[3]; [11]", "result": "3% and 2.9%"}, {"measurement": "Resistance increase", "setting": "[3]; [12]", "result": "−0.3", "unit": "%"}]}]}
